Common to all, as to type: cell-based
The test system of experiment [1] is TNFα release from LPS-stimulated THP-1 cells (iRhom2/ADAM17-dependent). In words: Primary screen (Example 1b): LPS-stimulated TNFα release from THP-1 cells, HTRF. The settings on record: Homo sapiens, overnight pre-incubation, LPS 100 ng/mL, 3 h, normalized against 10 μM Batimastat. On the procedure: (§1) Two separate screens to identify novel small molecule inhibitors of iRhom2/ADAM17 activity were developed. […] Therefore, the primary screen for small molecule inhibitors of iRhom2/ADAM17 was a screen for inhibitors that blocked the release of TNFα from LPS-stimulated THP-1 human myeloid cells, a process that depends on iRhom2 and ADAM17. Since the release of TNFα from THP-1 cells can be blocked at many stages of the LPS/TLR4/iRhom2/ADAM17 pathway, a secondary screen was performed for another iRhom2/ADAM17 selective substrate, Kit-ligand 2 (KL-2) (Maretzky T et al. (July 2013), “iRhom2 controls the substrate selectivity of stimulated ADAM17-dependent ectodomain shedding”, PNAS 110(28): 11433-11438) in a different human cell type, human embryonic kidney cells (HEK 293).
THP-1 cells were plated in low volume 384 wells (10,000 cells per well in 12.6 μL RPMI medium) together with inhibitors or 10 μM BB94 and incubated over night. The next day, TNFα shedding was initiated by stimulation of THP-1 cells with 100 ng/mL LPS (1.8 μL of an 800 ng/mL LPS stock) for 3 hrs at 37° C. The extent of released TNFα was detected with the corresponding HTRF antibodies labeled with europium cryptate (donor) and d2 (acceptor). The HTRF signal was generated by proximity of europium cryptate and d2. All detection reagents were purchased from Cisbio. TNFα detection was performed according to the manufacturer's protocol (Product Insert for Cisbio TNFα (h) Kit Part #62HTNFAPEG & 62HTNFAPEH; https://www.cisbio.com/media/asset/c/i/cisbio_dd_pi_62htnfapeg-62htnfapeh.pdf, accessed Sep. 28, 2020).
Low volume 384 well plates were pre-coated with small molecule library compounds for a final concentration of 20 μM in a 15 μL reaction, or 0.75 μL of 200 μM stock of BB94 in 5% DMSO (final concentration 0.25%). 12.6 μL of cell suspension [8E5/mL; 10,000 cells/well; culture RPMI medium] and pre-incubated at 37° C., 5% CO2, over night. The next day, 1.8 μL of an 800 ng/mL LPS stock was added [final concentration 100 ng/mL in 15 μL assay] and the cells were incubated at 37° C., 5% CO2, for 3 h. Subsequently, 3 μL of the HTRF-mix [used at 1:3 dilution of cisbio HTRF human TNF] was added and the plates were incubated for an additional 2 hrs at 25° C. After an incubation at room temperature for 2 h, the HTRF readout was performed. Then data evaluation for normalization against the 10 μM Batimastat control (=100% […]) was applied.
Background: In TR-FRET formats the signal depends on donor and acceptor labels being close together.

Experiment [2] concerns PMA-stimulated KL2 release from HEK-293 cells (iRhom2/ADAM17 selective substrate). In words: Secondary screen (Example 3b): PMA-stimulated KL2 release from HEK-293 cells, AP readout. The settings on record: Homo sapiens, HEK293, HEK-293 cells expressing KL2-AP, PMA 100 ng/mL, 2 h, read-out: Secondary Screen IC50 KitL2. On the procedure:
as §1
(§2) Expression plasmids for alkaline phosphatase (AP)-fused human KL2 and TGFα had been previously designed and generated through gene synthesis followed by subcloning into the pcDNA3.1(+)/Hygro expression vector. […] Subsequently, DNA amplifications were performed to obtain sufficient amounts of the expression vectors. The quality of DNA and gene sequences were confirmed through restriction digest and Sanger sequencing. In parallel, cell culture of HEK-293 cells was initiated. Master and working cell banks were prepared, scaled up and transfected with the respective constructs by electroporation. During cell culturing, cell density and viability were monitored to ensure optimal conditions for the transfections. After PMA stimulation, AP-coupled KL2 or TGFα were detected by measurement of AP activity in the supernatant.
(§3) After electroporation, cells were further cultured in presence of selection antibiotics, hygromycin B, to generate stably transfected polyclonal cell pools. For both assays, KL2 and TGFα shedding, the respective selected pool turned out to be suitable. Final assay conditions were determined for the selected pools. For all experiments, batimastat (BB94, 10 μM) was used as positive control for full inhibition of KL2 or TGFα shedding.
(§4) The wells of sterile 384-well flat bottom clear plates for KL2-AP assays were coated with 10 μL of 0.1 mg/mL poly-d-lysine for 3-4 hr at 25° C. or overnight at 4° C., then washed 2× with PBS and patted dry. 60 μL of cells (40,000/well) were added to the sterile 384-well plate and incubated in Optimem (with 2% FCS and 1% Pen-strep) overnight at 37° C. (5% CO2). After incubation overnight, 55 μL medium were removed with a BioTek EL406 and 10 μL of prediluted compounds were added to the cells for a final concentration of 20 μM. After incubation for 15 min, 15 μL of PMA (100 ng/mL final conc.) were added. The cells were incubated for 2 h at 37° C. (5% CO2). Then, the plates were centrifuged for 5 min at 1000 rpm and 3 μL of the supernatant was transferred to a fresh 384 well plate and 9 μL of AP Balance Buffer was added per well. 12 μL of pNPP p-nitrophenyl phosphate (final 1 M pNPP) was added. AP reaction was performed for 1 h at 37° C. The reaction was stopped by addition of 12 μL of NaOH (1 M final conc.), the plates were centrifuged to remove air bubbles and the absorbance of pNP was measured at 405 nm.

For experiment [3], the system named is PMA-stimulated TGFα release from HEK-293 cells (substrate of iRhom1/ADAM17 and iRhom2/ADAM17). Briefly: Counter screen (Example 4b): PMA-stimulated TGFα release from HEK-293 cells, AP readout. The settings on record: Homo sapiens, HEK293, HEK-293 cells expressing TGFα-AP, PMA 100 ng/mL, 2 h. On the procedure:
A tertiary counterscreen was also performed to monitor the release of TGFα, which is a substrate of iRhom1/ADAM17 and iRhom2/ADAM17, so its release should not be blocked by an iRhom2-selective inhibitor (Maretzky T et al. (July 2013), “iRhom2 controls the substrate selectivity of stimulated ADAM117-dependent ectodomain shedding”, PNAS 110(28): 11433-11438; and Li X et al. (May 2015), “iRhoms 1 and 2 are essential upstream regulators of ADAM17-dependent EGFR signaling”, PNAS 112(19): 6080-6085).
as §2, §3
as §4, with “for TGF-AP” for “for KL2-AP”, “cells (20,000/well)” for “cells (40,000/well)”, “and 12” for “and 3”, “well plate.” for “well plate and 9 μL of AP Balance Buffer was added per well.”
In general terms: The purpose of a counterscreen is to sort out artefacts and off-target activity.

`CC(=O)Oc1ccccc1Cn1c(C)c(C(=O)NCc2cccs2)sc1=O` [Compound 6]: the figures for the IC50 in experiment [1], in experiment [2] and in experiment [3] were 4.86 µM, more than 40 µM and more than 40 µM, respectively.

One may read the IC50 as the concentration needed to halve the response being measured.
